Reference: paper PMC9939733 (The Journal of Biological Chemistry, 2023)
Where a chain is given by its changes, count along the chain named. “And” between values parts separate entries of the source, which are not always exact repeats. Equal values may be shown once.

Tests used:
Assay type in all cases: biochemical
R140Q IDH2 [1] = target: T1, R140Q IDH2 (Homo sapiens, UniProt P48735, R140Q); assay: Absorbance assay, variant activity in the presence of equimolar 2OG (inhibition screen); conditions: for activity [%] (%-substrate conversion after 20 min incubation): 6.0 mM 2OG and 6.0 mM test compound, 0.03 μM R140Q IDH2, 50 μM NADPH
T1 construct: made in house; host or cells: Sf21 insect cells (cell pellets prepared at Evotec)
T1 sequence (P48735 40-452 R140Q): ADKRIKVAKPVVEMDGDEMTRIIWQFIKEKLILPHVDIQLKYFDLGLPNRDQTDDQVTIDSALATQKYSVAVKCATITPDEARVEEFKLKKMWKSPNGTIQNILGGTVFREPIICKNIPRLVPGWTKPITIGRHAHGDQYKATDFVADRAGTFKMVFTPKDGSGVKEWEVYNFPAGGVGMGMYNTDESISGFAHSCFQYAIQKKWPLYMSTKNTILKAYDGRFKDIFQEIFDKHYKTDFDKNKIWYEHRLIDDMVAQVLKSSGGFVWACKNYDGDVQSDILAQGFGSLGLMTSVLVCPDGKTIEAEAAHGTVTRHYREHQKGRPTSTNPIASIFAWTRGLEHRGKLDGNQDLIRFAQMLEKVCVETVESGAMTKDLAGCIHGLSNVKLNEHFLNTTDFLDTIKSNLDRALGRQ
Outline: (§1)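 Tech. quadruplicates; cpds pipetted simultaneously, reaction initiated by dispenser addition.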

R172K IDH2 [2] = target: T2, R172K IDH2 (Homo sapiens, UniProt P48735, R172K); assay: as above; conditions: for activity [%] (%-substrate conversion after 20 min incubation): 1.0 mM 2OG and 1.0 mM test compound, 0.03 μM R172K IDH2, 50 μM NADPH
T2 construct: made in house; host or cells: Sf21 insect cells (cell pellets prepared at Evotec)
T2 sequence (P48735 40-452 R172K): T1 sequence (P48735 40-452 R140Q) with Q101R, R133K
Outline: as §1

WT IDH1 [3] = target: T3, WT IDH1 (Homo sapiens, UniProt O75874); assay: Absorbance assay, WT activity in the presence of equimolar DL-isocitrate (inhibition); conditions: […] isocitrate and […] test compound, 75 μM NADP+, 2.0 nM WT IDH1
T3 construct: made in house; host or cells: Escherichia coli BL21(DE3) pLyS
T3 sequence (O75874 whole entry): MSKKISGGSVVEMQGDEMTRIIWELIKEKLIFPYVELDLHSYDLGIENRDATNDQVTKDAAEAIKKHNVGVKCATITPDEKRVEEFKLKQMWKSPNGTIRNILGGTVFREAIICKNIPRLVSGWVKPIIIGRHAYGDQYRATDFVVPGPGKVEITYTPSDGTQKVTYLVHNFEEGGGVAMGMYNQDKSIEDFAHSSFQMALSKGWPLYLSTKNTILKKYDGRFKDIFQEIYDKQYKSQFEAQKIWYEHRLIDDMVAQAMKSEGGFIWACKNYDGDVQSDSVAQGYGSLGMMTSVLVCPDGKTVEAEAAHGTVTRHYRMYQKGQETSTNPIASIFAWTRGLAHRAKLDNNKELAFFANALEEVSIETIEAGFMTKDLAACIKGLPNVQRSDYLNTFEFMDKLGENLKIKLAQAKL
Outline: as §1

WT IDH2 [4] = target: T4, WT IDH2 (Homo sapiens, UniProt P48735); assay: as above; conditions: […] isocitrate and […] test compound, 75 μM NADP+, 2.0 nM WT IDH2
T4 construct: made in house; host or cells: Sf21 insect cells (cell pellets prepared at Evotec)
T4 sequence (P48735 40-452): T1 sequence (P48735 40-452 R140Q) with Q101R
Outline: as §1

WT IDH1 [5] = target: T3, WT IDH1; assay: Absorbance assay, substrate activity in the absence of DL-isocitrate; conditions: no DL-isocitrate; […] test compound, 75 μM NADP+, 2.0 nM WT IDH1; compared to DL-isocitrate
Outline: as §1

WT IDH2 [6] = target: T4, WT IDH2; assay: as above; conditions: no DL-isocitrate; […] test compound, 75 μM NADP+, 2.0 nM WT IDH2; compared to DL-isocitrate
Outline: as §1

R132H IDH1 [7] = target: T5, R132H IDH1 (Homo sapiens, UniProt O75874, R132H); assay: Absorbance assay, variant activity in the presence of equimolar 2OG (inhibition screen); parameters: made in house; host or cells: Escherichia coli BL21(DE3) pLyS; conditions: […] 2OG and […] test compound, 0.03 μM R132H IDH1, 50 μM NADPH
Outline: as §1
Target sequence in this assay (O75874 whole entry R132H): as the sequence (O75874 whole entry) above, with R132H counted along it

R132H IDH1 [8] = target: T5, R132H IDH1; assay: Steady-state kinetics, absorbance assay; parameters: made in house; host or cells: Escherichia coli BL21(DE3) pLyS; conditions: for Kmapp / kcatapp: 0.03 μM enzyme, 50 μM NADPH, 20 mM MgCl2, pH 8.0
Experimental: (§2) Compounds were dispensed using a CyBio SDW-CW CyBi-Well Simultaneous Pipettor and assay started using a ThermoFisher Multidrop Combi reagent dispenser.
(§3) Reactions were performed as technical duplicates, and all assays were carried out in two independent duplicates.
Target sequence in this assay (O75874 whole entry R132H): as the sequence (O75874 whole entry) above, with R132H counted along it

R132H IDH1 [9] = target: T5, R132H IDH1; assay: Electrochemical assay (FNR+R132H IDH1)@ITO/PGE electrode; parameters: made in house; host or cells: Escherichia coli BL21(DE3) pLyS (IDH1 R132H); conditions: for predicted change in catalytic rate: simulated from experimental Km and vmax, if 500 μM substrate consumed at the electrode-solution interface per scan
Experimental: Assays were carried out in an anaerobic glovebox (Glove Box Technology) under a nitrogen atmosphere. A potentiostat (Autolab PGSTAT 10) running on Nova software was used for all experiments. As previously described, the electrochemical apparatus included an Autolab electrode rotator, a two-chamber custom-made glass electrochemical cell, and custom-made rotating pyrolytic graphite edge (PGE) electrodes ([55]). Platinum wire was used as the counter electrode; it was placed in the working electrode chamber. Electrode potentials (E) were measured against a saturated calomel electrode and converted to the standard hydrogen electrode using a temperature-dependent equation (at 25 °C: ESHE = ESCE + 0.2412 V) ([55]). Nanoporous indium tin oxide (ITO) electrodes were made by electrophoretically depositing ITO nanoparticles (<50 nm, Sigma-Aldrich) onto PGE electrodes (ITO/PGE) as previously described ([55]). […] In all experiments, 0.85 nmol (homodimer basis) of IDH1 R132H was used; the amount of coloaded FNR was adjusted to achieve the desired enzyme loading ratio. Electrodes loaded with enzyme were thoroughly rinsed using buffer solution before each experiment to remove excess enzyme. […]
and controlled electrochemically under steady-state conditions (1).
Conditions: 25 °C, mixed buffer (20 […]
mM each MES, TAPS, CHES, pH 8.0), 10 mM MgCl2, 10 µM NADPH, 4 mL cell volume, (FNR+R132H IDH1)@ITO/PGE electrode, electrode area 0.06 cm2, rotated at 1000 rpm, E = –0.513 V vs SHE, enzyme loading ratios (molar): FNR/R132H IDH1; 2.5 (dimer basis).
(1 picture or pasted object on this page, not shown here)
Target sequence in this assay (O75874 2-414 R132H): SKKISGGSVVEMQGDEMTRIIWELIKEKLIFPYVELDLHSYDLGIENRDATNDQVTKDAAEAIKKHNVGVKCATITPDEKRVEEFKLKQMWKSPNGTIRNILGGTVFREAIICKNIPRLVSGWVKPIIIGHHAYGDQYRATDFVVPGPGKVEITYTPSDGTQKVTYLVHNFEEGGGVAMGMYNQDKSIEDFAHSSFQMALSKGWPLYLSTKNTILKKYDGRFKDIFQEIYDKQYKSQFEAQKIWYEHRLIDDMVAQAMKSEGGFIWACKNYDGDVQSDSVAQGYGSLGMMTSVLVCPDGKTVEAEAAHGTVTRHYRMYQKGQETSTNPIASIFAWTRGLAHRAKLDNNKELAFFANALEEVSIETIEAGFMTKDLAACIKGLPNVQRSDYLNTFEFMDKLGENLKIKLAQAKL

R140Q IDH2 [10] = target: T1, R140Q IDH2; assay: Absorbance assay (NADPH consumption), substrate turnover in the absence of 2OG; conditions: no 2OG; 6.0 mM test compound, 0.03 μM R140Q IDH2, 50 μM NADPH; 2OG = 100
Outline: as §1

R172K IDH2 [11] = target: T2, R172K IDH2; assay: as above; conditions: no 2OG; 1.0 mM test compound, 0.03 μM R172K IDH2, 50 μM NADPH; 2OG = 100
Outline: as §1

R140Q IDH2 [12] = target: T1, R140Q IDH2; assay: Absorbance assay, IC50 determination
Experimental: (§4) The reactivity of WT IDH1/2 and oncogenic IDH1/2 variants was assayed at ambient temperature by continuously monitoring the concentration-dependent change in absorbance ([…]) of NADPH using a PheraStar FS or a CLARIOstar Plus plate reader (BMG Labtech). Enzyme reactions (60 μL total reaction volume) were performed in clear 384-well UV-STAR plates (Greiner Bio-one, #781801). Compounds were dispensed using a CyBio SDW-CW CyBi-Well Simultaneous Pipettor and assay started using a ThermoFisher Multidrop Combi reagent dispenser.
(§5) Final assay concentrations were as follows: 30 nM IDH1/2 variant and 50 μM NADPH. […] Reactions were performed as technical quadruplicates, and all assays were carried out in two independent duplicates. GraphPad Prism (version 5.04) was used for data analysis and to determine the IC50 values.

R172K IDH2 [13] = target: T2, R172K IDH2; assay: Absorbance assay, IC50 determination
Experimental: as §4, §5

R132H IDH1 [14] = target: T5, R132H IDH1; assay: Absorbance assay (NADPH consumption), substrate turnover in the absence of 2OG; parameters: made in house; host or cells: Escherichia coli BL21(DE3) pLyS; conditions: no 2OG; […] test compound, 0.03 μM R132H IDH1, 50 μM NADPH; 2OG = 100
Outline: as §1
Target sequence in this assay (O75874 whole entry R132H): as the sequence (O75874 whole entry) above, with R132H counted along it

R132H IDH1 [15] = target: T5, R132H IDH1; assay: Absorbance assay, IC50 determination; parameters: made in house; host or cells: Escherichia coli BL21(DE3) pLyS
Experimental: as §4, §5
Target sequence in this assay (O75874 whole entry R132H): as the sequence (O75874 whole entry) above, with R132H counted along it

R140Q IDH2 [16] = target: T1, R140Q IDH2; assay: Steady-state kinetics, absorbance assay; conditions: 0.03 μM enzyme, 50 μM NADPH, 20 mM MgCl2, pH 8.0
Experimental: as §2, §3

R172K IDH2 [17] = target: T2, R172K IDH2; assay: Steady-state kinetics, absorbance assay; conditions: 0.03 μM enzyme, 50 μM NADPH, 20 mM MgCl2, pH 8.0
Experimental: as §2, §3

R132C/S280F IDH1 = target: T6, R132C/S280F IDH1 (Homo sapiens, UniProt O75874, R132C/S280F); assay: Steady-state kinetics, NADPH turnover assay
T6 construct: made in house
T6 sequence (O75874 whole entry R132C/S280F): as the sequence (O75874 whole entry) above, with R132C, S280F counted along it
Experimental: independent runs, each composed of technical duplicates (n = 2; mean ± SD); c) R132C/S280F IDH1 assays
monitoring NADPH turnover were performed as reported (3). […]

activity [%] (%-substrate conversion after 20 min incubation) (R140Q IDH2 [1])	activity [%] (%-substrate conversion after 20 min incubation) (R172K IDH2 [2])	activity [%] (%-substrate conversion after 20 min incubation) (WT IDH1 [3])	activity [%] (%-substrate conversion after 20 min incubation) (WT IDH2 [4])	activity [%] (%-substrate conversion after 20 min incubation) (WT IDH1 [5])	activity [%] (%-substrate conversion after 20 min incubation) (WT IDH2 [6])	activity [%] (%-substrate conversion after 20 min incubation) (R132H IDH1 [7])	Kmapp (R132H IDH1 [8]) [mM]	predicted change in catalytic rate (R132H IDH1 [9]) [%]	Kmapp (R140Q IDH2 [16])	kcatapp (R140Q IDH2 [16]) [s⁻¹]	Kmapp (R172K IDH2 [17]) [mM]	kcatapp (R172K IDH2 [17])	Kmapp (R132C/S280F IDH1) [mM]	kcatapp (R132C/S280F IDH1) [s⁻¹]	kcatapp (R132H IDH1 [8]) [s⁻¹]	Compound	other results
12 ± 7	13 ± 4	93 ± 2	93 ± 1			< 10										O=C(O)CNC(=O)C(=O)O [NOG, N-oxalylglycine, reference compound]	activity [%] (%-substrate conversion after 20 min incubation) (R140Q IDH2 [10]): < 10%; activity [%] (%-substrate conversion after 20 min incubation) (R172K IDH2 [11]): < 10%; inhibition (R140Q IDH2 [1]; equimolar 2OG (6.0 mM)): ≥ 90%; inhibition (R172K IDH2 [2]; equimolar 2OG (1.0 mM)): ≥ 90%; IC50 (R140Q IDH2 [12]): ~621 µM; IC50 (R172K IDH2 [13]): ~161 µM; activity [%] (%-substrate conversion after 20 min incubation) (R132H IDH1 [14]): < 10%; IC50 (R132H IDH1 [15]): ~188 µM
								−46								CC(CC(=O)C(=O)O)C(=O)O (single isomer, unassigned) [enantiopure 12]	Vmax (predicted for single enantiomer) (R132H IDH1 [8]; predicted, Fig. 3H simulation): 9.6 µM/min

Continued, compound first:

Compound	activity [%] (%-substrate conversion after 20 min incubation) (R140Q IDH2 [1])	activity [%] (%-substrate conversion after 20 min incubation) (R172K IDH2 [2])	activity [%] (%-substrate conversion after 20 min incubation) (WT IDH1 [3])	activity [%] (%-substrate conversion after 20 min incubation) (WT IDH2 [4])	activity [%] (%-substrate conversion after 20 min incubation) (WT IDH1 [5])	activity [%] (%-substrate conversion after 20 min incubation) (WT IDH2 [6])	activity [%] (%-substrate conversion after 20 min incubation) (R132H IDH1 [7])	Kmapp (R132H IDH1 [8]) [mM]	predicted change in catalytic rate (R132H IDH1 [9]) [%]	Kmapp (R140Q IDH2 [16])	kcatapp (R140Q IDH2 [16]) [s⁻¹]	Kmapp (R172K IDH2 [17]) [mM]	kcatapp (R172K IDH2 [17])	Kmapp (R132C/S280F IDH1) [mM]	kcatapp (R132C/S280F IDH1) [s⁻¹]	kcatapp (R132H IDH1 [8]) [s⁻¹]	other results
CC(CC(=O)C(=O)O)C(=O)O (centres unmarked) [compound 12, 4-methyl-2OG]	281 ± 4	112 ± 13	107±4	100±4	< 10	< 10	161 ± 26	12	−22								Vmax (R132H IDH1 [8]; experimental value used for Michaelis-Menten simulation, Fig. 3H): 9.6 µM/min; decrease of R132H IDH1 faradaic 'coupled' current during each scan (R132H IDH1 [9]; cyclic voltammetry, stationary electrode, 20 μM NADPH, 10 mM MgCl2, pH 8): −43%
CCCCC(CC(=O)O)C(=O)C(=O)O (centres unmarked) [compound 4, 3-butyl-2OG]	753 ± 72	126 ± 3	96±1	98±2	< 10	< 10	376 ± 21	5.7 ± 3.3		3.8 ± 0.8 mM and 3.8 to 7.5 mM	9.7 ± 0.4	16 ± 5	7.8 ± 1.8 s⁻¹ and ~7.8 s⁻¹	0.24 ± 0.01	15 ± 3	9.2 ± 0.4	
CC(CC(=O)O)C(=O)C(=O)O (centres unmarked) [compound 1, 3-methyl-2OG]	107 ± 4	151 ± 5	94±1	97±3	< 10	< 10	391 ± 20	3.7 ± 0.1		2.0 ± 0.8 mM and ~2.0 mM	5.4 ± 0.3	4.2 ± 0.4	4.8 ± 0.2 s⁻¹	0.31 ± 0.01	20.2 ± 0.5	6.9 ± 0.4	
